{"source": "patent US10675294B2", "about": "“Pharmaceutical composition containing 8 OXO-deoxyguanosine or pharmaceutically acceptable salt thereof as active ingredient for treating corneal disease” (GACHON UNIVERSITY OF INDUSTRY-ACADEMIC COOPERATION …, priority 2016, dated 2020)", "key": {"[1]": {"system": "ethanol induced corneal injury mouse model", "assay": "Histological observation (H&E) of corneal tissue", "assay_type": "in vivo", "conditions": "5 mg/ml or 10 mg/ml in the eye twice a day for a week; n=2; FIGS. 5a, 5b", "method": "(§1) Particularly, in order to construct a corneal injury mouse model using ethanol, a filter paper of 6 mm in diameter soaked in 100% ethanol was applied onto the cornea of the right eye of a female BALB/c mouse at 10 weeks of age for 30 seconds, followed by irrigation with PBS (phosphate-buffered saline) for 1 minute. In order to observe the defects of the corneal epithelium surface easily, the lysamine green reagent, which selectively stains the epithelium defect area, was treated on the surface of the damaged corneal epithelium and washed with physiological saline.\nThe ethanol induced corneal injury mouse model constructed in Example 1 was administered with 8-oxo-dG in the eye at the concentration of 5 mg/ml or 10 mg/ml and the control PBS (phosphate-buffered saline), twice a day for a week. The corneal tissues were extracted and fixed in 10% paraformaldehyde, followed by washing with PBS. The tissues were embedded in paraffin and the paraffin block was stained with H&E (haematoxylin and eosin), followed by direct observation under the microscope. The stromal thickness was measured by using Image J software."}, "[2]": {"system": "ethanol induced corneal injury mouse model", "assay": "Clinical index scoring of corneal epithelium damage recovery", "assay_type": "in vivo", "method": "as §1\n8-oxo-dG was applied into the eye of the ethanol induced corneal injury mouse model for a week and then the recovery of the corneal epithelium damage was investigated. Particularly, the ethanol induced corneal injury mouse model examined in Experimental Example 1 was injected with Zoletil intramuscularly in order to anesthetize the mouse, followed by lysamine green staining on the cornea. Then, epithelial integrity and clarity of the corneal epithelium and corneal neovascularization were investigated and the results proceeded to clinical grading and scoring by items.\nThe corneal clarity was also evaluated and scored step by step. The indexes of the evaluation are as follows (Fantes et al, Arch Ophthalmol 1990).\nIn addition, in order to evaluate and score the degree of corneal neovascularization, the cornea was divided into quadrants as shown in FIG. 1. Based on the limbus between the cornea and the sclera, 0.5 points were assigned to each part of the newly formed vessels in the inside, followed by indexing and scoring (total 12 scores) (Li et al, Molecular Vision 2010).\nDuring the application of 8-oxo-dG into the eye for a week, corneal staining was performed for a week to graphically identify the recovery of the corneal epithelial defects on daily basis."}, "IL-6": {"system": "IL-6", "assay": "Inflammatory cytokine mRNA expression in corneal tissue by real time PCR", "assay_type": "in vivo, mouse", "conditions": "5 mg/ml or 10 mg/ml in the eye twice a day for a week; three groups incl. PBS; FIG. 7c", "method": "as §1\n(§2) Particularly, the ethanol induced corneal injury mouse model constructed in Example 1 was administered with 8-oxo-dG in the eye at the concentration of 5 mg/ml or 10 mg/ml and the control PBS (phosphate-buffered saline), twice a day for a week. The corneal tissue was extracted and homogenized with a sonicator (Ultrasonic Processor, Cole Parmer Instruments, Vernon Hills, Ill., USA). Then, corneal RNA was extracted by using RNeasy Mini kit (Qiagen, Valencia, Calif., USA). CDNA was synthesized with the same amount of RNA of each corneal sample and real-time PCR (ABI 7500 Real Time PCR System, Applied Biosystems, Carlsbad, Calif., USA) was performed. Taqman Gene Expression Assays were used for real-time PCR. The detailed inflammatory cytokines were as follows. […]"}, "IL-1β": {"system": "IL-1β", "assay": "Inflammatory cytokine mRNA expression in corneal tissue by real time PCR", "assay_type": "in vivo, mouse", "conditions": "10 mg/ml in the eye twice a day for a week; compared with control; FIG. 7b", "method": "as §1, §2"}, "[3]": {"system": "ethanol induced corneal injury mouse model", "assay": "Visual and lysamine green staining observation of corneal epithelium surface", "assay_type": "in vivo", "conditions": "5 mg/ml and 10 mg/ml in the eye twice a day for a week; compared with control (PBS); FIG. 3", "method": "as §1\nThe 8-oxo-2′-deoxyguanosine compound prepared at the concentrations of 5 mg/ml and 10 mg/ml and the control PBS (phosphate-buffered saline) were applied into the eye of the ethanol induced corneal injury mouse model constructed in Example 1, respectively twice a day for a week, followed by observation with the naked eye and photographs (n=15 in each group)."}, "[4]": {"system": "neutrophils, macrophages and T cells", "assay": "Immunohistochemical staining of inflammatory cells in corneal tissue", "assay_type": "in vivo, mouse", "conditions": "5 mg/ml or 10 mg/ml in the eye twice a day for a week, compared with control", "method": "as §1\nParticularly, the ethanol induced corneal injury mouse model constructed in Example 1 was administered with 8-oxo-dG in the eye at the concentration of 5 mg/ml or 10 mg/ml and the control PBS (phosphate-buffered saline), twice a day for a week. The corneal tissues were extracted and fixed in 10% paraformaldehyde, followed by washing with PBS. The tissues were treated with anti-neutrophil elastase, anti CD3 and anti F4/80 antibodies (Abcam, Cambridge, UK), the markers of neutrophils, T lymphocytes and macrophages. After washing with PBS, the secondary antibody (REAL™ EnVision™ detection system, Dako) was applied thereto. […] The immunostained cells in each section were counted by hand by two skilled examiners and the numbers were averaged."}, "Rac protein": {"system": "Rac protein", "conditions": "exogenous 8-oxo-dG; previous experiments with animal models; cited from earlier work"}, "TNF-α": {"system": "TNF-α", "assay": "Inflammatory cytokine mRNA expression in corneal tissue by real time PCR", "assay_type": "in vivo, mouse", "conditions": "5 mg/ml or 10 mg/ml in the eye twice a day for a week; compared with control; FIG. 7a"}}, "data": [{"molecule": "Nc1nc2c([nH]c(=O)n2[C@H]2CC(O)[C@@H](CO)O2)c(=O)[nH]1", "note": "(some centres unmarked) [8-oxo-dG, 8-oxo-2′-deoxyguanosine]", "values": [{"measurement": "corneal epithelium tissue condition/thickness (H&E)", "setting": "[1]", "result": "restored to the normal level"}, {"measurement": "neovascularization scoring index", "setting": "[2]; 5 mg/ml or 10 mg/ml in the eye twice a day for a week, FIG. 4c", "result": "reduced in the group treated with 8-oxo-dG to some degree"}, {"measurement": "epithelial integrity index score (defect of the corneal epithelium surface)", "setting": "[2]; 5 mg/ml or 10 mg/ml in the eye twice a day for a week, compared with PBS, FIG. 4a", "result": "reduced in the group treated with 8-oxo-dG dose-dependently"}, {"measurement": "corneal clarity scoring index", "setting": "[2]; 5 mg/ml or 10 mg/ml in the eye twice a day for a week, lower index = improved clarity, FIG. 4b", "result": "reduced in the group treated with 8-oxo-dG dose-dependently"}, {"measurement": "daily recovery of corneal epithelial defects (corneal staining index score)", "setting": "[2]; 5 mg/ml or 10 mg/ml in the eye, daily corneal staining for a week, FIG. 4d", "result": "significantly reduced in the group treated with 8-oxo-dG dose-dependently"}, {"measurement": "expression of IL-6 mRNA", "setting": "IL-6", "result": "not much different"}, {"measurement": "expression of IL-1β mRNA", "setting": "IL-1β", "result": "significantly reduced"}, {"measurement": "corneal epithelium surface damage, lysamine green staining (after staining)", "setting": "[3]", "result": "reduced significantly by the treatment of 8-oxo-dG dose-dependently"}, {"measurement": "corneal epithelium surface damage, naked eye (before staining)", "setting": "[3]", "result": "reduced by the treatment of 8-oxo-dG dose-dependently"}, {"measurement": "number of cells stained with anti-neutrophil elastase (neutrophils)", "setting": "[4]; FIG. 6a", "result": "reduced significantly"}, {"measurement": "number of cells stained with anti F4/80 (macrophages)", "setting": "[4]; FIG. 6b", "result": "reduced significantly"}, {"measurement": "number of cells stained with anti CD3 (T cells)", "setting": "[4]; FIG. 6c", "result": "not much different"}, {"measurement": "effect on Rac protein (GTPase)", "setting": "Rac protein", "result": "inactivated Rac protein"}, {"measurement": "expression of TNF-α mRNA", "setting": "TNF-α", "result": "not significantly but slightly reduced"}]}]}
